Values quoted from earlier work as cited in patent US20220273584A1, “Film Formulation Comprising Carriers” (Klaria Pharma Holding AB, priority 2019, published 2022).

Details: at a concentration of 1-10%

For `CCCCCCCC/C=C\CCCCCCCC(=O)O` [Oleic acid, oleic acid], which “permeability with porcine buccal epithelium” value is on record?
The value was “enhanced permeability”.
